Data taken from US9475789B2, “Use of polyenylpyrrole derivatives for treating inflammation” (WELLHEAD BIOLOGICAL TECHNOLOGY CORP., priority 2014, dated 2016).
Entries after “also recorded” stand apart in the source; their conditions may differ.

Key:
Assay type in all cases: cell-based, murine
IL-6 = IL-6 ELISA, RAW 264.7 macrophages; conditions: for secretion of IL-6: LPS-activated RAW 264.7, LPS 1 μg/ml 24 h; for background level of IL-6: compound alone, no LPS, data not shown
Protocol: (§1) The effects of tested samples on IL-1β, TNF-α and IL-6 production were measured by ELISA according to the manufacturer's instruction. In brief, 50 μl of biotinylated antibody reagent and 50 μl of supernatant were added to an anti-mouse IL-1β, TNF-α and IL-6 precoated stripwell plate, and incubated at room temperature for 2 h. After washing the plate three times with washing buffer, 100 μl of diluted streptavidin-HRP concentrate was added to each well and incubated at room temperature for 30 min. The washing process was repeated; then 100 μl of a premixed tetramethylbenzidine substrate solution was added to each well and developed at room temperature in the dark for 30 min. Following the addition of 100 μl of stop solution to each well to stop the reaction, the absorbance of the plate was measured by a microplate reader at 450 nm wavelength.

RAW 264.7 cells = test: AlamarBlue assay for cell viability; conditions: Mus musculus, RAW264.7, cytotoxicity against RAW 264.7 cells, 24 h treatment
Protocol: RAW 264.7 cells were seeded at a density of 5000 cells in 100 μl RPMI 1640 medium with 10% heat-inactivated FBS per well in 96-well flat-bottom plates and incubated for 24 h at 37° C. in a 5% CO2 incubator. Cells were incubated with tested samples for 24 h and the AlamarBlue® assay was used to determine the cytotoxicity of the test samples. The procedure was conducted following the protocol described in the manufacture's instruction (AbD Serotec Ltd).
The aim of this study is to identify non-toxic polyenylpyrrole derivatives which can be used as anti-inflammatory agents. Compounds 1a-n were evaluated for their cytotoxicities against the murine macrophages cell line RAW 264.7 after 24 h treatment.

COX-2 = test: Western blot of COX-2 protein in LPS-activated RAW 264.7 macrophages
Protocol: (§2) In (A) and (C), cells (5×10^5/ml) were incubated with polyenylpyrrole derivatives or DMSO (vehicle) for 30 min followed by stimulating with LPS (1 μg/ml) for 24 h, then NO (A), IL-6 and TNF-α (C) concentration in culture medium were assayed by Griess reaction and ELISA, respectively. In (B), cells (5×10^5/ml) were pretreated with polyenylpyrrole derivatives or DMSO for 30 min followed by stimulating with LPS (1 μg/ml) for 24 h, then the protein expression of iNOS and COX-2 were assayed by Western blot.
(§3) Whole cell lysates were separated by SDS-PAGE and electrotransferred to a PVDF membrane. The membranes were incubated in blocking solution—5% nonfat milk in phosphate buffered saline with 0.1% Tween 20—at room temperature for 1 h. Each membrane was incubated with a specific primary antibody at room temperature for 2 h. After washing three times in PBS with 0.1% Tween 20, the membrane was incubated with an HRP-conjugated secondary antibody directed against the primary antibody. The membrane was developed by an enhanced chemiluminescence Western blot detection system.

[1] = tested on: LPS-induced NO generation in RAW 264.7 macrophages; test: NO inhibitory assay (Griess reaction) in LPS-activated macrophages; conditions: for EC50: Mus musculus, RAW264.7, 50% inhibition of the LPS-induced NO generation, RAW 264.7, LPS 1 μg/ml, 24 h, read-out: ED50 (the source's name); for production of NO by LPS-activated cells: RAW 264.7, LPS 1 μg/ml 24 h, Griess reaction; for background level of NO: compound alone, no LPS, RAW 264.7, data not shown
Protocol: as §2, with “blot. […] RAW 264.7 cells were seeded in 24-well plates at a density of 5×10^5 cells/ml, and then incubated with or without LPS (1 μg/ml) in the absence or presence of tested samples for 24 h. The effects of the tested samples on NO production were measured indirectly by analysis of nitrite levels using the Griess reaction.” for “blot.”

TNF-α = TNF-α ELISA, RAW 264.7 macrophages; conditions: for TNF-α secretion: LPS-activated RAW 264.7, LPS 1 μg/ml 24 h; for background level of TNF-α: compound alone, no LPS, data not shown
Protocol: as §2, §1

iNOS = test: Western blot of iNOS protein in LPS-activated RAW 264.7 macrophages; conditions: LPS-activated RAW 264.7, compared with vehicle
Protocol: as §2, §3

ROS = test: Intracellular ROS production, LPS-activated RAW 264.7 macrophages; conditions: compound 1h 20 μM, NAC 10 mM, 30 min before LPS
Protocol: In (A), RAW 264.7 macrophages (5×10^5/ml) were incubated with compound 1h (20 μM), N-acetyl cysteine (NAC; 10 mM) or DMSO (vehicle) for 30 min followed by LPS (1 μg/ml) stimulating for the indicated time, then ROS levels were measured by detection of the fluorescence intensity of the fluorophore carboxyl-DCF and expressed relative to those at time zero. In (B), RAW 264.7 macrophages (5×10^5/ml) were incubated with compound 1h (20 μM) or DMSO for 30 min followed by LPS (1 μg/ml) stimulating for 0-60 min, then the phosphorylation levels of ERK1/2, JNK1/2, p38 were analyzed by Western blot. In (C), J774A.1 macrophages (5×10^5/ml) were incubated with compound 1h or DMSO for 30 min followed by LPS (1 μg/ml) stimulating for 20 min, then the phosphorylation levels of ERK1/2, JNK1/2, p38 were analyzed by Western blot.
Intracellular ROS stimulated by LPS was measured by detecting the fluorescence intensity of the 2′,7′-dichlorofluorescein diacetate (H2DCFDA) oxidized product (DCF) (Molecular Probes, Eugene, Oreg.). […] The relative fluorescence intensity of fluorophore DCF, formed by peroxide oxidation of the non-fluorescent precursor, was detected at an excitation wavelength of 485 nm and an emission wavelength of 530 nm with a microplate absorbance reader (Bio-Rad Laboratories, Inc).

| Structure (SMILES) | EC50 [1] [µM] | secretion of IL-6 (IL-6) | background level of IL-6 (IL-6) | IC50 (RAW 264.7 cells) [µM] | COX-2 expression (COX-2) | production of NO by LPS-activated cells [1] | background level of NO [1] | TNF-α secretion (TNF-α) | background level of TNF-α (TNF-α) | expression of iNOS protein (iNOS) | LPS-stimulated ROS production (ROS) |
| --- | --- | --- | --- | --- | --- | --- | --- | --- | --- | --- | --- |
| Cc1c(O)cc(/C=C/C=C/C=C/C=C/c2[nH]ccc2Cl)oc1=O [Compound 1i] | 16 ± 2 | decreased production; also recorded: decreased the secretion of IL-6 by LPS-activated RAW 264.7 macrophages in a dose-dependent manner | did not alter | > 100 | did not affect | decreased production; also recorded: decreased the production of NO by LPS-activated cells in a dose-dependent manner | did not alter | slight reduced by compounds 1h, 1i and 1n, but not significantly | did not alter | decreased production; also recorded: reduced the expression of iNOS protein |  |
| COc1cc(/C=C/C=C/C=C/C=C/c2sccc2Cl)oc(=O)c1 [Compound 1j] | 29 ± 6 |  |  | > 100 |  |  |  |  |  |  |  |
| COc1cc(/C=C/C=C/C=C/C=C/c2sccc2Cl)oc(=O)c1C [Compound 1k] | 18 ± 2 |  |  | > 100 |  |  |  |  |  |  |  |
| COc1cc(/C=C/C=C/C=C/C=C/c2cccc(Cl)c2)oc(=O)c1C [Compound 1m] | 26 ± 3 |  |  | > 100 |  |  |  |  |  |  |  |
| CC(=O)N[C@@H](CS)C(=O)O [N-acetyl cysteine, reference compound] |  |  |  |  |  |  |  |  |  |  | reduced ROS production |

Continued, in another order:

| EC50 [1] [µM] | Structure (SMILES) | secretion of IL-6 (IL-6) | background level of IL-6 (IL-6) | IC50 (RAW 264.7 cells) [µM] | COX-2 expression (COX-2) | production of NO by LPS-activated cells [1] | background level of NO [1] | TNF-α secretion (TNF-α) | background level of TNF-α (TNF-α) | expression of iNOS protein (iNOS) | LPS-stimulated ROS production (ROS) |
| --- | --- | --- | --- | --- | --- | --- | --- | --- | --- | --- | --- |
| 18 ± 3 | COc1cc(/C=C/C=C/C=C/C=C/c2ccccc2Cl)oc(=O)c1C [Compound 1l] |  |  | > 100 |  |  |  |  |  |  |  |
| 17 ± 2 | COc1cc(/C=C/C=C/C=C/C=C/c2c(Cl)ccn2S(C)(=O)=O)oc(=O)c1C [Compound 1n] | decreased production; also recorded: decreased the secretion of IL-6 by LPS-activated RAW 264.7 macrophages in a dose-dependent manner | did not alter | > 100 | did not affect | decreased production; also recorded: decreased the production of NO by LPS-activated cells in a dose-dependent manner | did not alter | slight reduced by compounds 1h, 1i and 1n, but not significantly | did not alter | decreased production; also recorded: reduced the expression of iNOS protein |  |
